≈ marks a conversion by molar mass, not a printed value.
Columns and labels:
Bacillus subtilis = assay: antibacterial activity (MIC) against Bacillus subtilis; type: cell-based
Staphylococcus aureus = assay: antibacterial activity (MIC) against Staphylococcus aureus; type: cell-based
[1] = acute toxicity (LD50), mouse, intraperitoneal; type: in vivo

MIC (Bacillus subtilis) [µg/mL] | MIC (Staphylococcus aureus) [µg/mL] | SMILES | LD50 ([1]; in vivo, ip, intraperitoneal, acute toxicity) [mg/kg] | acute toxicity as compared with Macbecin I and II ([1]; intraperitoneal, compared with Macbecin I and II) | acute toxicity (in words) ([1]; ip, conclusion from the LD50)
50 to 100 (≈ 91.5 to 183 µM) | 50 to 100 (≈ 91.5 to 183 µM) | COC1CC(C)C(OC)c2cc(O)cc(c2O)NC(=O)C(C)=CC=CC(C)C(OC(N)=O)C(C)=CC(C)C1O (centres unmarked) [E-3-R] |  |  | 
50 to 100 (≈ 91.8 to 184 µM) | 50 to 100 (≈ 91.8 to 184 µM) | COC1C2=CC(=O)C=C(NC(=O)C(C)=CC=CC(C)C(OC(N)=O)C(C)=CC(C)C(OC)C(O)CC1C)C2=O (centres unmarked) [E-5] |  |  | 
50 to 100 (≈ 91.8 to 184 µM) | 50 to 100 (≈ 91.8 to 184 µM) | COC1CC(C)C(OC)C2=CC(=O)C=C(NC(=O)C(C)=CC=CC(C)C(OC(N)=O)C(C)=CC(C)C1O)C2=O (centres unmarked) [E-3] |  |  | 

SMILES | MIC (Bacillus subtilis) [µg/mL] | MIC (Staphylococcus aureus) [µg/mL] | LD50 ([1]; in vivo, ip, intraperitoneal, acute toxicity) [mg/kg] | acute toxicity as compared with Macbecin I and II ([1]; intraperitoneal, compared with Macbecin I and II) | acute toxicity (in words) ([1]; ip, conclusion from the LD50)
COC1c2cc(O)cc(c2O)NC(=O)/C(C)=C/C=C\C(C)C(OC(N)=O)/C(C)=C/C(C)C(OC)C(O)CC1C (centres unmarked) [E-5-R] | 50 to 100 (≈ 91.5 to 183 µM) | 50 to 100 (≈ 91.5 to 183 µM) | 100 to 200 | lower toxicity | low toxicity

Reference: patent publication US4421687A, “Macbecin derivatives” (priority 1981, dated 1983)
